# Laboratory results published in US7223766B2, “Bi-cyclic pyrimidine inhibitors of TGFβ” (Scios, Inc., priority 2003, dated 2007).
# Target: T1, TGF R1 kinase (Homo sapiens, UniProt P36897)
# T1 sequence (P36897 34-503): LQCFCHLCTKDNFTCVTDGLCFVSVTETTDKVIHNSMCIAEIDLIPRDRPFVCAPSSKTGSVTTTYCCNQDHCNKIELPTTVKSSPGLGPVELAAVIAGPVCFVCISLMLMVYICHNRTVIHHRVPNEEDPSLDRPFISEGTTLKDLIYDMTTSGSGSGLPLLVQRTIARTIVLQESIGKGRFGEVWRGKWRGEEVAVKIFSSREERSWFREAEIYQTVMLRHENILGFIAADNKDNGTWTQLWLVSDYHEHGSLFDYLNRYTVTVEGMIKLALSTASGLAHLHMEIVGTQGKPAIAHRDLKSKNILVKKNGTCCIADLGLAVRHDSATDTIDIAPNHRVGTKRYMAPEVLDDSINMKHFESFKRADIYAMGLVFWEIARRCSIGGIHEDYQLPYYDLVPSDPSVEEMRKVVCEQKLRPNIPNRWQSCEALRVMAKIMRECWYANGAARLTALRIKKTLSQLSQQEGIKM
# Experiment: TGF-β inhibition assay: phosphorylation of the substrate casein by TGF R1 kinase
# Assay type: biochemical
# Conditions: table names no assay; casein assay of Example 2: 2.5 μM ATP, 100 μM casein, 6.4 nM TGF R1 kinase
# Procedure: Invention compounds were tested for their abilities to inhibit the phosphorylation of the substrate casein. The assay was conducted as follows: Compound dilutions and reagents were prepared fresh daily. Compounds were diluted from DMSO stock solutions to 2 times the desired assay concentration, keeping final DMSO concentration in the assay less than or equal to 1%. TGF RI kinase was diluted to 4 times the desired assay concentration in buffer and DTT. ATP and casein were diluted into 4× reaction buffer, and gamma-^32P-ATP was added at 50 μCi/mL.
# The assay was performed by adding 10 μl of the enzyme to 20 μl of the compound solution. The reaction was initiated by the addition of 10 μl of the casein/ATP mix. Final assay conditions included 2.5 μM ATP, 100 μM casein, 6.4 nM TGF R1 kinase, and […] in 20 mM Tris buffer, pH 7.5. The reactions were incubated at room temperature for 45 minutes. The reactions were then stopped by transferring 23 μl of reaction mixture onto a phosphocellulose 96-well filter plate, which had been pre-wetted with 15 μl of 0.25M H3PO4 per well. After 5 minutes, the wells were washed 4× with 75 mM H3PO4 and once with 95% ethanol. The plate was dried, scintillation cocktail was added to each well, and the wells were counted in a Packard TopCount microplate scintillation counter. The ability of a compound to inhibit the enzyme was determined by comparing the counts obtained in the presence of the compound to those of the positive control (in the absence of compound) and the negative control (in the absence of enzyme).
# In both of the assays referenced above, IC50 values can be determined with curve-fitting plots available with common software packages. Approximate IC50 values can be calculated using formula: IC50 (app)=A×i/(1−A) where A=fractional activity and i=total inhibitor concentration.
row,IC50,SMILES
1,9400 nM,"c1ccc(-c2nc(Nc3ccncc3)c3cc[nH]c3n2)cc1 [Compound 2, 4-(4-aminopyridyl)-2-phenyl pyrollo[2,3d]pyrimidine]"
2,780 nM,Cc1noc2nc(-c3cccc(Cl)c3)nc(Nc3ccncc3)c12 [Compound 3]
3,270 nM,Cc1noc2nc(-c3cc(Br)ccc3F)nc(Nc3ccncc3)c12 [Compound 6]
4,5070 nM,CCc1noc2nc(-c3cccc(Cl)c3)nc(Nc3ccncc3)c12 [Compound 7]
5,267 nM,Cc1noc2nc(-c3cc(Cl)ccc3F)nc(Nc3ccncc3)c12 [Compound 8]
6,2440 nM,Cc1noc2nc(-c3cccc(I)c3)nc(Nc3ccncc3)c12 [Compound 10]
7,1350 nM,CCc1noc2nc(-c3cc(Cl)ccc3F)nc(Nc3ccncc3)c12 [Compound 11]
8,1380 nM,Cc1noc2nc(-c3ccccc3F)nc(Nc3ccncc3)c12 [Compound 12]
9,12800 nM,Cc1noc2nc(-c3ccccc3Cl)nc(Nc3ccncc3)c12 [Compound 14]
10,1020 nM,Cc1noc2nc(-c3cccc(Br)c3)nc(Nc3ccncc3)c12 [Compound 15]
11,4650 nM,Cc1noc2nc(-c3ccc(Cl)cc3)nc(Nc3ccncc3)c12 [Compound 17]
12,93 nM,Cc1cnccc1Nc1nc(-c2cc(Cl)ccc2F)nc2c1CCC2 [Compound 20]
13,53 nM,NC(=O)c1cnccc1Nc1nc(-c2cc(Cl)ccc2F)nc2c1CCC2 [Compound 21]
14,6270 nM,Cc1cnccc1Nc1nc(-c2cc(Cl)ccc2F)nc2c1CNCC2 [Compound 22]
15,1180 nM,Cc1cnccc1Nc1nc(-c2cc(Cl)ccc2F)nc2c1CCNC2 [Compound 23]
16,16100 nM,Cc1cnccc1Nc1nc(-c2cc(Cl)ccc2F)nc2c1CN(Cc1ccccc1)CC2 [Compound 30]
17,6500 nM,CCOC(=O)c1cnccc1Nc1nc(-c2cc(Cl)ccc2F)nc2c1CCC2 [Compound 32]
18,3100 nM,"Cc1cnccc1Nc1nc(-c2cc(Cl)ccc2F)nc2c1COC2 [Compound 33, [2-(5-Chloro-2-fluorophenyl)-5,7-dihydrofuro[3,4-d]pyrimidin-4-yl]-(3-methyl-pyridin-4-yl)-amine]"
19,2250 nM,"NC(=O)c1cnccc1Nc1nc(-c2cc(Cl)ccc2F)nc2c1COC2 [Compound 34, 4-[2-(5-Chloro-2-fluoro-phenyl)-5,7-dihydro-furo[3,4-d]pyrimidin-4-ylamino]-nicotinic amide]"
20,170 nM,Fc1ccc(Cl)cc1-c1nc2c(c(Nc3ccncc3C(F)(F)F)n1)CCC2 [Compound 36]
21,2240 nM,O=C(c1cnccc1Nc1nc(-c2cc(Cl)ccc2F)nc2c1CCC2)N1CCCC1 [Compound 37]
22,252 nM,"Cc1cnccc1Nc1nc(-c2cc(Cl)ccc2F)nc2c1CCCC2 [Compound 38, [2-(5-Chloro-2-fluorophenyl)-5,6,7,8-tetrahydroquinazolin-4-yl]-(3-methylpyridin-4-yl)-amine]"
23,50.1 nM,CNC(=O)c1cnccc1Nc1nc(-c2cc(Cl)ccc2F)nc2c1CCCC2 [Compound 40]
24,1350 nM,O=C(NC1CC1)c1cnccc1Nc1nc(-c2cc(Cl)ccc2F)nc2c1CCC2 [Compound 41]
25,1330 nM,O=C(NCC1CC1)c1cnccc1Nc1nc(-c2cc(Cl)ccc2F)nc2c1CCC2 [Compound 42]
26,104 nM,"Cc1cnccc1Nc1nc(-c2cc(Cl)ccc2F)nc2c1C(C)CC2 (stereo not shown) [Compound 43, [2-(5-Chloro-2-fluorophenyl)-5-methyl-6,7-dihydro-5H-cyclopentapyrimidin-4-yl]-(3-methyl-pyridin-4-yl)-amine]"
27,148 nM,"CNC(=O)c1cnccc1Nc1nc(-c2cc(Cl)ccc2F)nc2c1OCC2 [Compound 44, 4-[2-(5-Chloro-2-fluorophenyl)-6,7-dihydrofuro[3,2-d]pyrimidin-4-ylamino]-N-methyl nicotinamide]"
28,683 nM,"O=C(NC1CC1)c1cnccc1Nc1nc(-c2cc(Cl)ccc2F)nc2c1CCCC2 [Compound 45, 4-[2-(5-Chloro-2-fluorophenyl)-5,6,7,8-tetrahydroquinazolin-4-ylamino]-N-cyclopropyl nicotinamide]"

row,IC50,SMILES
1,13 nM,CC1CCc2nc(-c3cc(Cl)ccc3F)nc(Nc3ccncc3C(N)=O)c21 (stereo not shown) [Compound 46]
2,14.5 nM,"CNC(=O)c1cnccc1Nc1nc(-c2cc(Cl)ccc2F)nc2c1C(C)CC2 (stereo not shown) [Compound 47, 4-[2-(5-Chloro-2-fluorophenyl)-5-methyl-6,7-dihydro-5H-cyclopentapyrimidin-4-ylamino]-N-methyl-nicotinamide]"
3,262 nM,"CCOC(=O)c1cnccc1Nc1nc(-c2cc(Cl)ccc2F)nc2c1C(C)CC2 (stereo not shown) [Compound 48, 4-[2-(5-Chloro-2-fluoro-phenyl)-5-methyl-6,7-dihydro-5H-cyclopentapyrimidin-4-ylamino]-nicotinic acid ethyl ester]"
4,85.3 nM,"CC1CCc2nc(-c3cc(Cl)ccc3F)nc(Nc3ccncc3C(=O)O)c21 (stereo not shown) [Compound 49, 4-[2-(5-Chloro-2-fluorophenyl)-5-methyl-6,7-dihydro-5H-cyclopentapyrimidin-4-ylamino]-nicotinic acid]"
5,4080 nM,"O=C(O)c1cnccc1Nc1nc(-c2cc(Cl)ccc2F)nc2c1CCCC2 [Compound 50, 4-[2-(5-Chloro-2-fluorophenyl)-5,6,7,8-tetrahydroquinazolin-4-ylamino]-nicotinic acid]"
6,238 nM,C[C@H](O)CNC(=O)c1cnccc1Nc1nc(-c2cc(Cl)ccc2F)nc2c1CCC2 [Compound 52]
7,417 nM,C[C@H](O)CNC(=O)c1cnccc1Nc1nc(-c2cc(Cl)ccc2F)nc2c1CCC2 [Compound 53]
8,486 nM,O=C(NO)c1cnccc1Nc1nc(-c2cc(Cl)ccc2F)nc2c1CCC2 [Compound 54]
9,639 nM,C[C@@H](O)CNC(=O)c1cnccc1Nc1nc(-c2cc(Cl)ccc2F)nc2c1CCC2 [Compound 55]
10,365 nM,CNCCNC(=O)c1cnccc1Nc1nc(-c2cc(Cl)ccc2F)nc2c1CCC2 [Compound 56]
11,436 nM,C[C@H](O)CNC(=O)c1cnccc1Nc1nc(-c2cc(Cl)ccc2F)nc2c1CCCC2 [Compound 57]
12,62.6 nM,NNC(=O)c1cnccc1Nc1nc(-c2cc(Cl)ccc2F)nc2c1CCC2 [Compound 58]
13,77.9 nM,CCN(CC)CCNC(=O)c1cnccc1Nc1nc(-c2cc(Cl)ccc2F)nc2c1CCCC2 [Compound 59]
14,2420 nM,"Cc1cnccc1Nc1nc(-c2cc(Cl)ccc2F)nc2c1CC(C)(C)C2 [Compound 60, [2-(5-Chloro-2-fluoro-phenyl)-6,6-dimethyl-6.7-dihydro-5H-cyclopentapyrimidin-4-yl]-(3-methyl-pyridin-4-yl)-amine]"
15,6250 nM,CC1(C)Cc2nc(-c3cc(Cl)ccc3F)nc(Nc3ccncc3C(F)(F)F)c2C1 [Compound 61]
16,205 nM,"CC1(C)Cc2nc(-c3cc(Cl)ccc3F)nc(Nc3ccncc3C(N)=O)c2C1 [Compound 62, 4-[2-(5-Chloro-2-fluoro-phenyl)-6,6-dimethyl-6,7-dihydro-5H-cyclopentapyrimidin-4-ylamino]-nicotinamide]"
17,102 nM,CNC(=O)c1cnccc1Nc1nc(-c2cc(Cl)ccc2F)nc2c1CC(C)(C)C2 [Compound 63]
18,1810 nM,C[C@@H](O)CNC(=O)c1cnccc1Nc1nc(-c2cc(Cl)ccc2F)nc2c1CC(C)(C)C2 [Compound 64]
19,2790 nM,CC1(C)Cc2nc(-c3cc(Cl)ccc3F)nc(Nc3ccncc3C(=O)NC[C@H](O)CO)c2C1 [Compound 65]
20,1250 nM,CNCCNC(=O)c1cnccc1Nc1nc(-c2cc(Cl)ccc2F)nc2c1CC(C)(C)C2 [Compound 66]
21,8850 nM,COC(=O)c1cnccc1Nc1nc(-c2ccccc2)nc2c1CCC2 [Compound 67]
22,289 nM,CNC(=O)c1cnccc1Nc1nc(-c2ccccc2)nc2c1CCC2 [Compound 68]
23,90.2 nM,CN(C)CCCNC(=O)c1cnccc1Nc1nc(-c2cc(Cl)ccc2F)nc2c1CCC2 [Compound 69]
24,529 nM,O=C(NCCCN1CCOCC1)c1cnccc1Nc1nc(-c2cc(Cl)ccc2F)nc2c1CCC2 [Compound 70]
25,844 nM,O=C(NCCCn1ccnc1)c1cnccc1Nc1nc(-c2cc(Cl)ccc2F)nc2c1CCC2 [Compound 71]
26,6460 nM,O=C(NCCCN1CCCC1=O)c1cnccc1Nc1nc(-c2cc(Cl)ccc2F)nc2c1CCC2 [Compound 72]
27,309 nM,CN1CCCC1CCNC(=O)c1cnccc1Nc1nc(-c2cc(Cl)ccc2F)nc2c1CCC2 (stereo not shown) [Compound 73]
